Where two headings read alike, the source gives them in different places.
Experiments:
THRβ = molecular target: T1, THRβ (Homo sapiens, UniProt P10828); test: HTRF test of agonist-induced SRC3-2 coactivator peptide recruitment to THRβ-LBD; assay type: biochemical; settings: for agonistic activity on THRβ compared with Resmetirom / selectivity of agonistic effect for THRβ over THRα: result in words
T1 sequence (P10828 217-461 limits assumed): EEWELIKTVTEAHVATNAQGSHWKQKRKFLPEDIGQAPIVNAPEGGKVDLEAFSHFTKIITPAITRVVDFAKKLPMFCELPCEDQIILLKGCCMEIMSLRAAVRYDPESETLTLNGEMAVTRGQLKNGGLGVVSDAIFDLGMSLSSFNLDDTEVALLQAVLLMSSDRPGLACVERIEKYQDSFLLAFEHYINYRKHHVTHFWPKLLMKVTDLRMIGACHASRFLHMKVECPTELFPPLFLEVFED
Experimental: (§1) 1. Experiment of binding of compounds to THRβ and THRα
(§2) Test principle: The effect of test compounds on THRβ and THRα was tested by using a method of HTRF. An MAb Anti GST-Eu cryptate antibody binds to GST-tagged THRα-LBD (or THRβ-LBD), while Streptavidin-XL665 binds to a biotin-labeled SRC3-2 coactivator peptide. […] At the same time, the resulting decrease in the distance between XL665-labeled SRC3-2 and an Eu-anti-GST antibody increases a THRFRET signal. The agonistic capacity at this target was assessed by the effect of compounds on the activity of THRα-LBD (THRβ-LBD) at different concentrations.
Test method: THRβ test procedures:
(§3) • (1) a 1×reaction solution was prepared. • (2) Preparation of compounds: the compound test starting concentration was 20 µM, 3-fold dilution was performed, 10 concentrations were set, and duplicate testing was set for each concentration. 100-fold dilution was performed in a 384-well Source plate to a corresponding solution with a final concentration, and then 200 nL of the solution was transferred to a 384-well reaction plate with Echo550 to be tested. 200 nL of 100% DMSO and a test article were respectively transferred to Min and Max wells. • (3) A 2×protein solution was prepared from the 1×reaction solution. • (4) A 4×SRC3-2 solution was prepared from the 1×reaction solution. • (5) A mixed solution of 4×GST-Eu cryptate and XL665 was prepared from the 1×reaction solution. • (6) 10 µl of the 2×protein solution was added to each well of the reaction plate, centrifugation was performed at 1000 rpm for 1 min, and incubation was performed at room temperature for 30 min. • (7) 5 µl of the 4×SRC3-2 solution was added to each well of the reaction plate, and centrifugation was performed at 1000 rpm for 1 min. • (8) 5 µL of the mixed solution of 4×GST-Eu cryptate and XL665 was added to each well of the reaction plate, centrifugation was performed at 1000 rpm for 1 min, and incubation was performed at 25°C. • (9) A fluorescence signal was read by using EnVision.

THRα = THRα (Homo sapiens, UniProt P10827); test: HTRF test of agonist-induced SRC3-2 coactivator peptide recruitment to THRα-LBD; assay type: biochemical; settings: for EC50: HTRF, starting concentration 20 µM, 3-fold dilution, 10 concentrations, duplicate; for agonistic activity on THRα: result in words
Sequence of THRα (P10827 148-410 isoform P10827-2 limits assumed, other chains not shown): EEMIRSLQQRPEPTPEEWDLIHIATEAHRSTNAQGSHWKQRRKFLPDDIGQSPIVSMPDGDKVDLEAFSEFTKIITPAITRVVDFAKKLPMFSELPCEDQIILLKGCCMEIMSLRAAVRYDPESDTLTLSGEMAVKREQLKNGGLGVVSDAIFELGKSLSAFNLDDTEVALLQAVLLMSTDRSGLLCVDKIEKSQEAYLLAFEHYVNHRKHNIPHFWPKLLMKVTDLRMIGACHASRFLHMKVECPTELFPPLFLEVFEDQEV
Experimental: as §1, §2, §3
THRα test procedures were the same as above.

[1] = Comparison of compound metabolites by human liver microsome incubation (LC-MS/MS); assay type: in vitro ADME; settings: 10 µM compound, human liver microsome 1.0 mg/mL, β-NADPH 1.0 mM, 37°C, 60 min
Experimental: The purpose of this experiment was to evaluate the comparison of the content of major metabolites of human liver microsome incubated compounds.
Sample treatment: a sample was precipitated with acetonitrile (ACN) containing 0.1% formic acid in a ratio of 1:2, and further centrifuged. A supernatant was dried with a nitrogen flow. A residue was reconstituted in […] of 10% ACN and 90% H2O containing 0.1% formic acid. […] of the reconstituted material was injected into an LC-MS/MS system for analysis.

[2] = In vivo pharmacokinetic study of elimination phase half-life after single IV bolus; design: species or system Sprague Dawley rats; settings: Sprague-Dawley, rat, whole blood, intravenous, I.V bolus, 5 mg/kg, rats, read-out: Elimination phase half-life (T1/2) (converted)
Experimental: Blood samples were collected from animals (IV group) before administration and at time points of 0.083 h, 0.25 h, 0.5 h, 1 h, 2 h, 4 h, 8 h, and 24 h after the end of administration. • Sample treatment: prior to blood collection, a centrifuge tube with 10 µl of EDTA-K2 and 1.2 mL of 50% acetonitrile-DMSO (a volume ratio of whole blood to 50% acetonitrile-DMSO is approximately 1:4) was placed in an ice box filled with crushed ice. The collected blood was added to the centrifuge tube, vortexed for at least 5 min, and then temporarily stored and transported in the ice box filled with crushed ice; and the blood was centrifuged at 12,000 g for 10 min at 4°C, wherein centrifugation was completed within 1 h after blood collection. A whole blood supernatant after centrifugation was transferred to a newly labeled tube, and transferred to -60°C or below for storage for analytical testing.

NASH model of B-DIO mice = test: Efficacy test in NASH model of B-DIO mice (HFD + CCL4); assay type: in vivo
From the text: An objective of this experiment was to evaluate the pharmacodynamics of compounds of the present invention by using an NASH model of B-DIO mice.
Five C57BL/6 mice on normal diet were assigned to an experimental group G1, and 25 B-DIO mice were randomly assigned to five experimental groups according to the body weight, with 5 mice in each group.
The day of grouping was Day-1, intraperitoneal injection was started on Day 0 in the groups G2-G6 for CCL4 modeling, the concentration of a modeling agent is 0.2 µl/g, the modeling frequency was twice a week, and administration was started on Day 0.
The body weight was measured twice a week after grouping. At the end of the experiment (Day 26), the mice were fasted for 4 h, and non-anticoagulated blood of the mice in the groups G1-G6 was collected and centrifuged, and a serum was taken for blood biochemical testing. Livers in the groups G1-G6 were collected and weighed, 20 mg of the liver was weighed for determination of TC and TG, and the remaining liver was placed in formalin for fixation for pathological observation.

[3] = HTRF, starting concentration 20 µM, 3-fold dilution, 10 concentrations, duplicate, read-out: THRβ (EC50)
[4] = liver, Day 26, 3 mg/kg I.G. Q.D., HFD+CCL4, mean±standard error

Which results are given for `[2H]C([2H])([2H])C(c1cc(Oc2c(Cl)cc(-n3nc(CF)c(=O)[nH]c3=O)cc2Cl)n[nH]c1=O)C([2H])([2H])[2H]` [Compound 1]?
EC50 (THRβ; [3]): 20 nM; agonistic activity on THRβ compared with Resmetirom (THRβ): significantly better than that of Resmetirom; EC50 (THRα): 326 nM

For `Cc1c(Oc2c(Cl)cc(-n3nc(CF)c(=O)[nH]c3=O)cc2Cl)n[nH]c(=O)c1C(C)C` [Compound 16], which EC50 (THRβ; [3]) is on record?
Its EC50 is 11 nM.

And the “agonistic activity on THRβ compared with Resmetirom” value (THRβ)?
Its value is “significantly better than that of Resmetirom”.

What about the “selectivity of agonistic effect for THRβ over THRα” value (THRβ) of the same compound?
The value was “selective agonistic effects on THRβ”.

What about the EC50 (THRα) of the same compound?
The EC50 was over 5000 nM.

What about the “agonistic activity on THRα” value (THRα) of the same compound?
The value was “weak agonistic activity on THRα”.

What about the “Monooxidized metabolite percent content (%)” value [1] of the same compound?
Its value is 9.7%.

What about the “Monooxidized metabolite percent content (%)” value ([1]; listed as compound 16) of the same compound?
The value was 9.7%.

For `Cc1c(C(C)C)c(Oc2c(Cl)cc(-n3nc(CF)c(=O)[nH]c3=O)cc2Cl)n[nH]c1=O` [Compound 17], which EC50 (THRβ) is on record?
Its EC50 is 46 nM.

What about the “agonistic activity on THRβ compared with Resmetirom” value (THRβ) of the same compound?
Its value is “significantly better than that of Resmetirom”.

What about the “selectivity of agonistic effect for THRβ over THRα” value (THRβ) of the same compound?
The value was “selective agonistic effects on THRβ”.

What about the EC50 (THRα) of the same compound?
The EC50 was over 5000 nM.

What about the “agonistic activity on THRα” value (THRα) of the same compound?
Its value is “weak agonistic activity on THRα”.

With `CC(C)c1cc(Oc2c(Cl)cc(-n3nc(CF)c(=O)[nH]c3=O)cc2Cl)n[nH]c1=O` [Compound X1, reference compound] as the compound, how does the EC50 (THRβ; [3]) read?
Its EC50 is 22 nM.

What about the EC50 (THRα) of the same compound?
Its EC50 is 95 nM.

Which half-life [2] does the source give for `CC(C)c1cc(Oc2c(Cl)cc(-n3nc(C#N)c(=O)[nH]c3=O)cc2Cl)n[nH]c1=O` [Resmetirom, reference compound] here?
The half-life was 2.98 h.

What about the “area proportion of lipid droplets in the liver (oil red O) compared with the model group G2” value (NASH model of B-DIO mice; G3, 3 mg/kg, Day 26, result in words (FIG. 8)) of the same compound?
The value was “decreased but no significant difference was seen”.

And the “liver fibrosis (Sirius red) compared with the model group G2” value (NASH model of B-DIO mice; G3, 3 mg/kg, Day 26, result in words (FIG. 9))?
The value was “certain improvement effects on liver fibrosis”.

And the “TC” value (NASH model of B-DIO mice; [4])?
The value was 56.44 ± 0.85 µmol/g.

And the “TG” value (NASH model of B-DIO mice; [4])?
Its value is 74.26 ± 4.34 µmol/g.

And the “TG” value (NASH model of B-DIO mice; serum, Day 26, 3 mg/kg I.G. Q.D., HFD+CCL4, mean±standard error)?
The value was 1.17 ± 0.06 mM.

Source: patent publication EP4763841A1, “PYRIDAZINONE COMPOUND AND USE THEREOF” (Xi'an Xintong Pharmaceutical Research Co., Ltd., priority 2023, dated 2025)
